Test results reported in ChEMBL document CHEMBL1201862, “PubChem BioAssay data set” (2004).
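Dose response: 5 concentrations. Exposure: 48 h. Format: 96-well plates. Endpoint: linear interpolation; highest concentration if not reached. The concentration for 50% growth inhibition is given as GI50.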 Calls of active or inactive are those of the source. No stated cut-off is given here; in the data, active = GI50 up to about 1.1 µM and inactive = higher.

Assays:
Experiment in all cases: inhibition of tumour cell growth, NCI panel, 48 h
HCT-116 = test system: HCT-116
A549 = test system: A549
MCF7 = test system: MCF7
HT-29 = test system: HT-29
A498 = test system: A498
OVCAR-4 = test system: OVCAR-4
U-251 = test system: U-251
Malme-3M = test system: Malme-3M
SK-MEL-28 = test system: SK-MEL-28
NCI-H23 = test system: NCI-H23
SK-MEL-5 = test system: SK-MEL-5
OVCAR-8 = test system: OVCAR-8
SF-539 = test system: SF-539
OVCAR-3 = test system: OVCAR-3
HL-60 = test system: HL-60
PC-3 = test system: PC-3
MDA-MB-231 = test system: MDA-MB-231
MOLT-4 = test system: MOLT-4

Row | SMILES | GI50 (HCT-116) | GI50 (A549) | GI50 (MCF7) | GI50 (HT-29) | GI50 (A498) | GI50 (OVCAR-4) | GI50 (U-251) | GI50 (Malme-3M) | GI50 (SK-MEL-28) | GI50 (NCI-H23) | GI50 (SK-MEL-5) | GI50 (OVCAR-8) | GI50 (SF-539) | GI50 (OVCAR-3) | GI50 (HL-60) | GI50 (PC-3) | GI50 (MDA-MB-231) | GI50 (MOLT-4)
1 | O=C(CCc1ccc(O)c(O)c1)NCCc1ccccc1 | 26.4 µM (inactive) | 76.9 µM (inactive) | 15.1 µM (inactive) | > 45.3 µM (inactive) | > 100 µM (inactive) | 14.6 µM (inactive) | 75 µM (inactive) | > 100 µM (inactive) | 85.5 µM (inactive) | 35.2 µM (inactive) | 22.4 µM (inactive) | > 47.5 µM (inactive) | > 47.8 µM (inactive) | 30.1 µM (inactive) | 6.58 µM (inactive) | > 37.2 µM (inactive) | 16.8 µM (inactive) | 12.7 µM (inactive)
2 | N=C1OC(CN2CCN(c3ccccc3)CC2)CN1C(=S)Nc1ccccc1 (stereo not drawn) | > 100 µM (inactive) | 94.8 µM (inactive) | 37.2 µM (inactive) | 49.7 µM (inactive) | 89.9 µM (inactive) | > 100 µM (inactive) | 78.7 µM (inactive) | 38.9 µM (inactive) | 84.3 µM (inactive) | 50.6 µM (inactive) | 35.8 µM (inactive) | 99.3 µM (inactive) | 96.2 µM (inactive) | 42.8 µM (inactive) | 31 µM (inactive) | 65.3 µM (inactive) | > 100 µM (inactive) | 44.3 µM (inactive)
3 | COc1ccc2[nH]c(C(=O)N3CC(CCl)c4ccc(N)cc43)cc2c1 (stereo not drawn) | 0.164 µM (active) | 0.0964 µM (active) | 0.0689 µM (active) | 0.151 µM (active) | 0.0789 µM (active) | 0.163 µM (active) | 0.313 µM (active) | 0.141 µM (active) | 0.368 µM (active) | 0.0726 µM (active) | 0.0451 µM (active) | 0.223 µM (active) | 0.211 µM (active) | 0.27 µM (active) | 0.0593 µM (active) | 0.233 µM (active) | 0.202 µM (active) | 0.165 µM (active)
4 | CCN(CC)c1ccc(/C=C/C=C2C(=O)NC(=S)NC2=O)cc1 | 30.9 µM (inactive) | > 100 µM (inactive) | 27 µM (inactive) | > 100 µM (inactive) | > 100 µM (inactive) | > 100 µM (inactive) | 21 µM (inactive) | 16.6 µM (inactive) | 4.91 µM (inactive) | > 67.5 µM (inactive) | 37.5 µM (inactive) | 14.3 µM (inactive) | 13.9 µM (inactive) | 16.6 µM (inactive) | 2.62 µM (inactive) | > 69.3 µM (inactive) | 22.9 µM (inactive) | 4.27 µM (inactive)
5 | Cc1cccc2c(N)c3cccc(C(=O)NCC[N+](C)(C)Cc4sccc4[N+](=O)[O-])c3nc12 | 12.1 µM (inactive) | 0.491 µM (active) | 2.04 µM (inactive) | 3.21 µM (inactive) | 27 µM (inactive) | 12.3 µM (inactive) | 6.47 µM (inactive) | 10.4 µM (inactive) | 37.3 µM (inactive) | 3.94 µM (inactive) | 5.21 µM (inactive) | 9.84 µM (inactive) | 2.83 µM (inactive) | 19.5 µM (inactive) | > 100 µM (inactive) | 11.9 µM (inactive) | 12 µM (inactive) | 0.871 µM (active)
6 | C/C(=N\N=C1/C(=O)OC(c2ccccc2)=C1C(=O)c1ccccc1)c1ccc([N+](=O)[O-])cc1 | 91.4 µM (inactive) | 41.7 µM (inactive) | 26.7 µM (inactive) | 73.8 µM (inactive) | > 100 µM (inactive) | 37.4 µM (inactive) | 41.5 µM (inactive) | 37.4 µM (inactive) | 54.7 µM (inactive) | 92.9 µM (inactive) | 37 µM (inactive) | 35.7 µM (inactive) | 65.2 µM (inactive) | 33.7 µM (inactive) | 35.8 µM (inactive) | 65.9 µM (inactive) | 79.3 µM (inactive) | 19.9 µM (inactive)
